This is an account of results in patent US20160074353A1, “USE OF PETROSELINIC ACID TO FIGHT AGAINST AESTHETIC DISORDERS OF THE BODY FIGURE” (L'OREAL, priority 2013, published 2016).

For the experiment, the system named is lipoxin A4. Description: Synthesis/release of lipoxin A4 by stimulated (PMA/A23187 + DHA/EPA) mononuclear blood cells, LC-MS quantification, % modulation relative to the control. It counts as cell-based. The conditions noted are these: % modulation vs stimulated control. The procedure: Mononuclear blood cells are cultured under 5% CO2 and at 37° C. in a serum-free medium for macrophages (SFM Macrophage; Invitrogen 12065074) for 24 hours.
After this step, the medium is replaced with the same fresh test medium also containing the active agents at the various doses for 30 minutes in the presence of the various products to be evaluated, as indicated in the table of results below. The inflammatory response was then triggered in the presence of phorbol myristate (0.05 μM) and calcium ionophore (1 μM) and of a lipid substrate mixture composed of docosahexaenoic acid (DHA—1 μg/mL) and eicosapentaenoic acid (EPA—1 μg/mL).
The supernatants were then collected after 2 hours of stimulation and frozen at −80° C. before preparation for analysis by mass spectrometry.
Experimental triplicates (three wells) were prepared per experimental condition. Into each culture plate was placed a control corresponding to cells stimulated with the PMA/A23187 mixture and/or with addition of the equimolar mixture of fatty acids.
The thawed supernatants were concentrated by solid-phase extraction (SPE) and taken up in methanol before spectrometric analysis. The analytical method used consists in separating the various analytes by high-pressure liquid chromatography as a function of their retention time and in quantifying them by mass spectrometry. […]

Take Zinc gluconate: the “Level of lipoxin A4 production” value (zinc gluconate 0.005 mg/ml) was −5%.
`NCCS(=O)(=O)O` [Taurine]: the “Level of lipoxin A4 production” value (taurine 3.1 mg/ml) is recorded as “+38%”.
